Values of other authors in patent US20220370332A1, “PRODUCT FOR DYEING KERATINOUS MATERIAL, CONTAINING AMINOSILICONE, A CHROMOPHORIC COMPOUND, PRESERVATIVE AND ETHOXYLATED FATTY ALCOHOL” (Henkel AG & Co. KGaA, priority 2019, published 2022).

Details: 25° C.

Row | SMILES | solubility in water
1 | CCN(Cc1cccc(S(=O)(=O)[O-])c1)c1ccc(C(=C2C=CC(=[N+](CC)Cc3cccc(S(=O)(=O)[O-])c3)C=C2)c2ccccc2S(=O)(=O)[O-])cc1.[Na+].[Na+] [Acid Blue 9] | more than 20 % by weight
2 | O=S(=O)([O-])c1ccc(N=Nc2c(O)ccc3ccccc23)cc1.[Na+] [Acid Orange 7, sodium salt of 4-[(2-hydroxy-1-naphthyl)azo]benzene sulphonate] | more than 7 g/L
3 | Nc1cc(S(=O)(=O)[O-])cc2cc(S(=O)(=O)[O-])c(N=Nc3ccccc3)c(O)c12.[Na+].[Na+] [Acid Red 33, diantrium salt of 5-amino-4-hydroxy-3-(phenylazo)-naphthalene-2,7-disulphonate] | 2500 µg/mL
4 | O=C([O-])c1c(Cl)c(Cl)c(Cl)c(Cl)c1-c1c2c(Br)cc(=O)c(Br)c-2oc2c(Br)c(O)cc(Br)c12.O=C([O-])c1c(Cl)c(Cl)c(Cl)c(Cl)c1-c1c2c(Br)cc(=O)c(Br)c-2oc2c(Br)c(O)cc(Br)c12.[Na+].[Na+] [Acid Red 92, disodium salt of 3,4,5,6-tetrachloro-2-(1,4,5,8-tetrabromo-6-hydroxy-3-oxoxanthen-9-yl)benzoic acid] | greater than 10 g/L
5 | O=C([O-])C1=NN(c2ccc(S(=O)(=O)[O-])cc2)C(=O)C1N=Nc1ccc(S(=O)(=O)[O-])cc1.[Na+].[Na+].[Na+] (centres unmarked) [Acid Yellow 23, trisodium salt of 4,5-dihydro-5-oxo-1-(4-sulfophenyl)-4-((4-sulfophenyl)azo)-1H-pyrazole-3-carboxylic acid] | highly soluble in water
